One block for each compound: values may come before it.
Tests used:
KCNQ3* (KCNQ3-A315T) = KCNQ3* (KCNQ3-A315T) (Homo sapiens, UniProt O43525, A315T); assay: TEVC of KCNQ3* homomers expressed in Xenopus laevis oocytes; format: cell-based
KCNQ3/5 = molecular target: T1, KCNQ3/5 (Homo sapiens, UniProt O43525+Q9NR82); assay: TEVC of KCNQ3/5 heteromers expressed in Xenopus laevis oocytes; format: cell-based; settings: 5 µM each substance
T1 construct: expressed in transfected cells; host or cells: Xenopus laevis oocytes co-injected with cRNAs
Excerpt: (§1) We generated cRNA transcripts encoding human KCNQ1, 2, 3, and 5 (wild-type and mutant) by in vitro transcription using the mMessage mMachine kit (Thermo Fisher Scientific, Waltham, MA, USA) according to manufacturer’s instructions, after vector linearization, from cDNA sub-cloned into expression vectors (pTLNx and pXOOM) incorporating Xenopus laevis β-globin 5’ and 3’ UTRs flanking the coding region to enhance translation and cRNA stability. Mutant KCNQ cDNAs were generated by Genscript (Piscataway, NJ, USA) and cRNAs made as above. We injected defolliculated stage V and VI Xenopus laevis oocytes (Xenoocyte, Dexter, MI, USA) with KCNQ cRNAs (2–10 ng) and incubated the oocytes at 16 °C in ND96 oocyte storage solution containing penicillin and streptomycin, with daily washing, for 2–4 days prior to two-electrode voltage-clamp (TEVC) recording.
(§2) We performed TEVC at room temperature using an OC-725C amplifier (Warner Instruments, Hamden, CT, USA) and pClamp10 software (Molecular Devices, Sunnyvale, CA, USA) 2–4 days after cRNA injection. We placed oocytes in a small-volume oocyte bath (Warner) and viewed them with a dissection microscope for cellular electrophysiology. We sourced chemicals from Sigma-Aldrich (St. Louis, MO, USA) and Combi-Blocks (San Diego, CA, USA). We studied effects of Salvia rosmarinus extracts and of compounds, solubilized directly in bath solution (in mM): 96 NaCl, 4 KCl, 1 MgCl2, 1 CaCl2, 10 HEPES (pH 7.6). We introduced extracts or compounds into the oocyte recording bath by gravity perfusion at a constant flow of 1 ml per minute for 3 min prior to recording. Pipettes were of 1-2 MΩ resistance when filled with 3 M KCl. […] We analyzed data using Clampfit (Molecular Devices) and Graphpad Prism software (GraphPad, San Diego, CA, USA), stating values as mean ± SEM. We plotted raw or normalized tail currents versus prepulse voltage and fitted with a single Boltzmann function:1 g=(A1−A2)/1+exp[V1/2−V/Vs]y+A2 where g is the normalized tail conductance, A1 is the initial value at -∞, A2 is the final value at +∞, V1/2 is the half-maximal voltage of activation and Vs the slope factor. We fitted activation and deactivation kinetics with single exponential functions.

KCNQ2/3 = molecular target: T2, KCNQ2/3 (Homo sapiens, UniProt O43525+O43526); assay: TEVC of KCNQ2/3 heteromers expressed in Xenopus laevis oocytes; format: cell-based
T2 construct: expressed in transfected cells; host or cells: Xenopus laevis oocytes co-injected with cRNAs
Excerpt: as §1
as §2, with “We” for “We performed TEVC at room temperature using an OC-725C amplifier (Warner Instruments, Hamden, CT, USA) and pClamp10 software (Molecular Devices, Sunnyvale, CA, USA) 2–4 days after cRNA injection. We”

[1] = Solubility limit for testing in bath solution; format: physicochemical
Excerpt: We performed TEVC at room temperature using an OC-725C amplifier (Warner Instruments, Hamden, CT, USA) and pClamp10 software (Molecular Devices, Sunnyvale, CA, USA) 2–4 days after cRNA injection. We placed oocytes in a small-volume oocyte bath (Warner) and viewed them with a dissection microscope for cellular electrophysiology. We sourced chemicals from Sigma-Aldrich (St. Louis, MO, USA) and Combi-Blocks (San Diego, CA, USA). We studied effects of Salvia rosmarinus extracts and of compounds, solubilized directly in bath solution (in mM): 96 NaCl, 4 KCl, 1 MgCl2, 1 CaCl2, 10 HEPES (pH 7.6). We introduced extracts or compounds into the oocyte recording bath by gravity perfusion at a constant flow of 1 ml per minute for 3 min prior to recording. Pipettes were of 1-2 MΩ resistance when filled with 3 M KCl. We recorded currents in response to voltage pulses between −120 mV and +40 mV at 10 mV intervals from a holding potential of −80 mV, to yield current-voltage relationships and examine activation kinetics. We analyzed data using Clampfit (Molecular Devices) and Graphpad Prism software (GraphPad, San Diego, CA, USA), stating values as mean ± SEM. We plotted raw or normalized tail currents versus prepulse voltage and fitted with a single Boltzmann function:1 g=(A1−A2)/1+exp[V1/2−V/Vs]y+A2 where g is the normalized tail conductance, A1 is the initial value at -∞, A2 is the final value at +∞, V1/2 is the half-maximal voltage of activation and Vs the slope factor. We fitted activation and deactivation kinetics with single exponential functions.

KCNQ2 = KCNQ2 (Homo sapiens, UniProt O43526); assay: TEVC of KCNQ2 homomers expressed in Xenopus laevis oocytes; format: cell-based
Excerpt: as §1, §2

[2] = 5 µM each substance, table head prints KCNQ3*, text says KCNQ3/5

KCNQ3* (KCNQ3-A315T), sequence (O43525 whole entry A315T): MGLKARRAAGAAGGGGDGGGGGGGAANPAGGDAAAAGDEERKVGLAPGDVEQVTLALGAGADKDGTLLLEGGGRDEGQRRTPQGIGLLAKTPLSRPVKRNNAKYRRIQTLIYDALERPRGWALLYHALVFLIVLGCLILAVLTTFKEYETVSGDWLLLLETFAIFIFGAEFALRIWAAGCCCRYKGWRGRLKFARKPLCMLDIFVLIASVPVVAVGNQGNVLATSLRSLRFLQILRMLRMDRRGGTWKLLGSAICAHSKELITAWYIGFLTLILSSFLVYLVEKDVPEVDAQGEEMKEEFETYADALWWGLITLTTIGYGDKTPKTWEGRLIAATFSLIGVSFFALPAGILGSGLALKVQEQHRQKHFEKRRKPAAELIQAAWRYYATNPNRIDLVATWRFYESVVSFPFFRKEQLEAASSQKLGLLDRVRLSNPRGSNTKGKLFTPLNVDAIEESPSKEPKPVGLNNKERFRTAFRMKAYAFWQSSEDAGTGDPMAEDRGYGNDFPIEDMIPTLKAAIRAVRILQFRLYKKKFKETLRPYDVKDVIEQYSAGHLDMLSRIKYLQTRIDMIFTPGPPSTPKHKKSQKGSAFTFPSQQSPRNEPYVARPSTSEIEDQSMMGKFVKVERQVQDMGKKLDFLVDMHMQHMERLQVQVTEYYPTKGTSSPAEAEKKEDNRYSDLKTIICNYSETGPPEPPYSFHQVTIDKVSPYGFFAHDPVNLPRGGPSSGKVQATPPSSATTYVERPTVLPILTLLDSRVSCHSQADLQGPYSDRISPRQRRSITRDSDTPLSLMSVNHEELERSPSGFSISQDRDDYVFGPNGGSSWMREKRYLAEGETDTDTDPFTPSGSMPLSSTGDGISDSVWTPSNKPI

Structure (SMILES): C1=C2CCCN[C@H]2[C@@H]2C[C@H]1[C@H]1CCCCN1C2 [Aloperine, aloperine, reference compound]
- Slope (KCNQ3* (KCNQ3-A315T); [2]): 6.96 ± 0.67 mV
- V0.5 Normalized tail current (KCNQ3* (KCNQ3-A315T); [2]): -46.72 ± 0.78 mV
- channel opening (KCNQ3/5): weak KCNQ3/5 opener

Structure (SMILES): CC(=O)Oc1c(C(C)C)cc2c(c1OC(C)=O)C1(C(=O)O)CCCC(C)(C)C1CC2 (stereo not shown) [Carnosic acid diacetate]
- Slope (KCNQ3* (KCNQ3-A315T); 10 µM): 5.06 ± 0.63 mV
- V0.5 Normalized tail current (KCNQ3* (KCNQ3-A315T); 10 µM): -50.38 ± 0.69 mV
- shift in V0.5act / opening (KCNQ3* (KCNQ3-A315T); 10 µM): only weakly negative-shifted
- Slope (KCNQ2/3; 10 µM): 6.11 ± 0.49 mV
- V0.5 Normalized tail current (KCNQ2/3; 10 µM): -38.43 ± 0.56 mV
- shift in V0.5act / opening (KCNQ2/3; 10 µM): only weakly negative-shifted
- solubility (highest testable concentration) ([1]; pH 7.6): solubility issues

- Slope (KCNQ3* (KCNQ3-A315T); 10 µM): 4.81 ± 0.56 mV
- V0.5 Normalized tail current (KCNQ3* (KCNQ3-A315T); 10 µM): -54.06 ± 0.70 mV
- effect on EM of unclamped oocytes (KCNQ3* (KCNQ3-A315T); 10 µM): without hyperpolarizing
- shift in V0.5act / opening (KCNQ3* (KCNQ3-A315T); 10 µM): −8.7 mV
- Slope (KCNQ2/3; 10 µM): 6.78 ± 0.62 mV
- V0.5 Normalized tail current (KCNQ2/3; 10 µM): -40.71 ± 0.71 mV
- effect on EM of unclamped oocytes (KCNQ2/3; 10 µM): without hyperpolarizing
- shift in V0.5act / opening (KCNQ2/3; 10 µM): −10 mV
- solubility (highest testable concentration) ([1]; bath solution): solubility issues
- Slope (KCNQ2; 10 µM): 6.47 ± 0.40 mV
- V0.5 Normalized tail current (KCNQ2; 10 µM): -46.18 ± 0.46 mV
Structure (SMILES): CC(C)c1cc2c3c(c1O)OC(=O)C31CCCC(C)(C)C1CC2 (stereo not shown) [Carnosic gamma lactone, carnosic acid γ-lactone]

- Slope (KCNQ3* (KCNQ3-A315T); 100 µM): 5.00 ± 1.11 mV
- V0.5 Normalized tail current (KCNQ3* (KCNQ3-A315T); 100 µM): -61.13 ± 1.28 mV
- shift in V0.5act (KCNQ3* (KCNQ3-A315T); 100 µM): −11 mV
- effect on EM of unclamped oocytes (KCNQ3* (KCNQ3-A315T); 100 µM (hesperidin 30 µM)): did not alter
- Slope (KCNQ2/3; 100 µM): 5.82 ± 0.75 mV
- V0.5 Normalized tail current (KCNQ2/3; 100 µM): -47.80 ± 0.87 mV
- effect on EM of unclamped oocytes (KCNQ2/3; 100 µM): did not alter
- shift in V0.5act (KCNQ2/3; 100 µM): no shift
- Slope (KCNQ2; 100 µM): 3.97 ± 1.31 mV
- V0.5 Normalized tail current (KCNQ2; 100 µM): -57.08 ± 1.31 mV
- effect on EM of unclamped oocytes (KCNQ2; 100 µM): did not alter
Structure (SMILES): CC(C)c1cc2c(c(O)c1O)[C@@]13CCCC(C)(C)[C@@H]1C[C@@H]2OC3=O [Carnosol]

- Slope (KCNQ3* (KCNQ3-A315T); 100 µM): 4.92 ± 0.40 mV
- V0.5 Normalized tail current (KCNQ3* (KCNQ3-A315T); 100 µM): -49.25 ± 0.43 mV
- hyperpolarization of EM (KCNQ3* (KCNQ3-A315T); 100 µM, unclamped oocytes): > 8 mV
- Slope (KCNQ2/3; 100 µM): 6.71 ± 0.64 mV
- V0.5 Normalized tail current (KCNQ2/3; 100 µM): -37.81 ± 0.73 mV
Structure (SMILES): COc1c(C(C)C)cc2c(c1OC)C13CCCC(C)(C)C1CC2OC3=O (stereo not shown) [Dimethylcarnosol, dimethyl carnosol]

Structure (SMILES): COc1ccc([C@@H]2CC(=O)c3c(O)cc(O[C@@H]4O[C@H](CO[C@@H]5O[C@@H](C)[C@H](O)[C@@H](O)[C@H]5O)[C@@H](O)[C@H](O)[C@H]4O)cc3O2)cc1O [Hesperidin, hesperidin]
- Slope (KCNQ3* (KCNQ3-A315T); 30 µM): 4.65 ± 0.46 mV
- V0.5 Normalized tail current (KCNQ3* (KCNQ3-A315T); 30 µM): -55.97 ± 0.57 mV
- V0.5 non-normalized tail current (KCNQ3* (KCNQ3-A315T); 30 µM): -55.83 ± 1.97 mV
- shift in V0.5act (KCNQ3* (KCNQ3-A315T); 30 µM): ~ −10 mV
- effect on EM of unclamped oocytes (KCNQ3* (KCNQ3-A315T); 100 µM (hesperidin 30 µM)): hyperpolarized
- Slope (KCNQ2/3; 30 µM): 7.73 ± 0.60 mV
- V0.5 Normalized tail current (KCNQ2/3; 30 µM): -48.08 ± 0.71 mV
- V0.5act shift (KCNQ2/3; 30 µM): −10.4 mV
- V0.5 non-normalized tail current (KCNQ2/3; 30 µM): -48.30 ± 2.77 mV
- effect on EM of unclamped oocytes (KCNQ2/3; 30 µM): hyperpolarized
- solubility ([1]; oocyte recording bath solution, pH 7.6, aqueous buffer, read-out: solubility (highest testable concentration)): ≤ 30 µM
- channel opening (KCNQ2; 30 µM): did not open
- Slope (KCNQ2; 100 µM): 6.54 ± 0.41 mV
- V0.5 Normalized tail current (KCNQ2; 100 µM): -45.73 ± 0.48 mV

Structure (SMILES): COC(=O)[C@]12CCCC(C)(C)[C@@H]1CCc1cc(C(C)C)c(O)c(O)c12 [Methyl carnosate, methyl carnosate]
- Slope (KCNQ3* (KCNQ3-A315T); 10 µM): 4.63 ± 0.74 mV
- V0.5 Normalized tail current (KCNQ3* (KCNQ3-A315T); 10 µM): -47.09 ± 0.74 mV
- shift in V0.5act / opening (KCNQ3* (KCNQ3-A315T); 10 µM): only a weak activator
- Slope (KCNQ2/3; 10 µM): 10.46 ± 0.87 mV
- V0.5 Normalized tail current (KCNQ2/3; 10 µM): -34.00 ± 0.97 mV
- shift in V0.5act / opening (KCNQ2/3; 10 µM): did not open
- solubility (highest testable concentration) ([1]; pH 7.6): poor solubility

Reference: publication PMC10272180, “Ancient medicinal plant rosemary contains a highly efficacious and isoform-selective KCNQ potassium channel opener” (Communications Biology, 2023)
